The target of test [1] is Tyrosine-protein kinase Lyn (Homo sapiens) (UniProt P07948). Kind of test: Binding affinity to Lyn assessed as increase of fluorescence after 60 mins relative to control.
For test [2] the target is unchanged. Kind of test: Binding affinity to Lyn assessed as increase of fluorescence after 60 mins by HPLC analysis.
The target is the same in test [3]. Kind of test: Binding affinity to Lyn in human K562 CML cells assessed as increase of fluorescence. The class given is cell-based. The following applies: TDE = time-dependent effect.
Test [4] shares this target. In words: Binding affinity to Lyn in human K562 CML cells assessed as increase of fluorescence after 60 mins in presence of SFK inhibitor SU6656. The class given is cell-based.
For test [5] the target is unchanged. In words: Binding affinity to Lyn in human K562 CML cells assessed as increase of fluorescence after 60 mins in presence of Bcr-Abl inhibitor Imatinib. The class given is cell-based.
For test [6] the target is unchanged. In words: Induction of Lyn phosphorylation in human K562 CML cells assessed as peptide substrate consumption at 25 uM after 10 mins. The class given is cell-based.
Test [7] has the same target. Kind of test: Induction of Lyn phosphorylation in human K562 CML cells assessed as peptide substrate consumption at 25 uM after 20 mins. In kind it is cell-based.
Test [8] has the same target. Kind of test: Induction of Lyn phosphorylation in human K562 CML cells assessed as peptide substrate consumption at 25 uM after 40 mins. The class given is cell-based.
Test [9] has the same target. Kind of test: Induction of Lyn phosphorylation in human K562 CML cells assessed as peptide substrate consumption at 25 uM after 60 mins. The class given is cell-based.
Test [10] has the same target. In words: Induction of Lyn phosphorylation in human K562 CML cells assessed as peptide substrate consumption at 25 uM after 10 mins in presence of Bcr-Abl inhibitor Imatinib. In kind it is cell-based.
Test [11] shares this target. In words: Induction of Lyn phosphorylation in human K562 CML cells assessed as peptide substrate consumption at 25 uM after 20 mins in presence of Bcr-Abl inhibitor Imatinib. The class given is cell-based.
Test [12] shares this target. Kind of test: Induction of Lyn phosphorylation in human K562 CML cells assessed as peptide substrate consumption at 25 uM after 40 mins in presence of Bcr-Abl inhibitor Imatinib. The class given is cell-based.
Test [13] shares this target. Kind of test: Induction of Lyn phosphorylation in human K562 CML cells assessed as peptide substrate consumption at 25 uM after 60 mins in presence of Bcr-Abl inhibitor Imatinib. In kind it is cell-based.

Active and inactive are the calls of the source. The rule behind the calls is not given here. Starred links: 1 amine or outer side, 2 acyl side, 3 side chain; linkers in the order of their positions; H or OH if unused. Non-standard residues stand in square brackets, D forms with d. Residues, ends and D or L forms follow the SMILES beside them. X2 = CCN1C(=O)c2cccc3c(-n4cc(C[C@H](N[*:1])C(=O)[*:2])nn4)ccc(c23)C1=O; X1 = O=C([C@H](Cc1cn(-c2ccc3ccc4cccc5ccc2c3c45)nn1)N[*:1])[*:2]; X5 = Cc1cc(=O)[nH]c2cc(-n3cc(C[C@H](N[*:1])C(=O)[*:2])nn3)ccc12; X4 = O=C([C@H](Cc1cn(-c2cc3ccc(O)cc3oc2=O)nn1)N[*:1])[*:2]; X3 = O=C([C@H](Cc1cn(-c2cccc3ccccc23)nn1)N[*:1])[*:2]

Sequence of Tyrosine-protein kinase Lyn (Homo sapiens) (P07948 2-512 limits assumed): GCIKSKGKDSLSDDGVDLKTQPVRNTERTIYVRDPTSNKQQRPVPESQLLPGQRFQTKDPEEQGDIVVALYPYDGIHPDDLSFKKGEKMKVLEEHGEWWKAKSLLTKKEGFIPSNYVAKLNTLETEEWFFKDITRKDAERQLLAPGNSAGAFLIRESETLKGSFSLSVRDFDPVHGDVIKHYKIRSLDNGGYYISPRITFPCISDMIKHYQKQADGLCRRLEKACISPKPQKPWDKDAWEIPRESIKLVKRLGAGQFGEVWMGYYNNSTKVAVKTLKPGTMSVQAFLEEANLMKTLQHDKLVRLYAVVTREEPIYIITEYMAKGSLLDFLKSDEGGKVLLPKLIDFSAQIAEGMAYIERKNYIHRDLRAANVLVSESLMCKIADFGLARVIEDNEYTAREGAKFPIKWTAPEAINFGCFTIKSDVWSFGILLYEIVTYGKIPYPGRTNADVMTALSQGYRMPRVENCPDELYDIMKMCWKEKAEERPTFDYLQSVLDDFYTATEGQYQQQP

In the case of `CC[C@H](C)[C@H](NC(=O)[C@H](CCC(=O)O)NC(=O)[C@H](CCC(=O)O)NC(=O)[C@H](CCC(=O)O)NC(=O)[C@H](C)N)C(=O)N[C@@H](Cc1ccc(O)cc1)C(=O)NCC(=O)N[C@@H](CCC(=O)O)C(=O)N[C@@H](Cc1cn(CCNS(=O)(=O)c2cccc3c(N(C)C)cccc23)nn1)C(=O)N[C@@H](CCC(=O)O)C(=O)N[C@@H](C)C(=O)N[C@@H](CCCCN)C(=O)N[C@@H](CCCCN)C(=O)N[C@@H](CCCCN)C(=O)N[C@@H](CCCCN)C(N)=O`, in test [1], the fold change (FC) is 0.

In the case of `CC[C@H](C)[C@H](NC(=O)[C@H](CCC(=O)O)NC(=O)[C@H](CCC(=O)O)NC(=O)[C@H](CCC(=O)O)NC(=O)[C@H](C)N)C(=O)N[C@@H](Cc1ccc(O)cc1)C(=O)NCC(=O)N[C@@H](CCC(=O)O)C(=O)N[C@@H](Cc1cn(Cc2cc(=O)oc3cc(N)ccc23)nn1)C(=O)N[C@@H](CCC(=O)O)C(=O)N[C@@H](C)C(=O)N[C@@H](CCCCN)C(=O)N[C@@H](CCCCN)C(=O)N[C@@H](CCCCN)C(=O)N[C@@H](CCCCN)C(N)=O`, the fold change (FC) in test [1] turned out to be 1.3.

With `CC[C@H](C)[C@H](NC(=O)[C@H](CCC(=O)O)NC(=O)[C@H](CCC(=O)O)NC(=O)[C@H](CCC(=O)O)NC(=O)[C@H](C)N)C(=O)N[C@@H](Cc1ccc(O)cc1)C(=O)NCC(=O)N[C@@H](CCC(=O)O)C(=O)N[C@@H](Cc1cn(Cc2cc(=O)oc3cc(NC(C)=O)ccc23)nn1)C(=O)N[C@@H](CCC(=O)O)C(=O)N[C@@H](C)C(=O)N[C@@H](CCCCN)C(=O)N[C@@H](CCCCN)C(=O)N[C@@H](CCCCN)C(=O)N[C@@H](CCCCN)C(N)=O`, the fold change (FC) in test [1] stood at 1.3.

`CC[C@H](C)[C@H](NC(=O)[C@H](CCC(=O)O)NC(=O)[C@H](CCC(=O)O)NC(=O)[C@H](CCC(=O)O)NC(=O)[C@H](C)N)C(=O)N[C@@H](Cc1ccc(O)cc1)C(=O)NCC(=O)N[C@@H](CCC(=O)O)C(=O)N[C@@H](Cc1cn(-c2ccc3ccc4cccc5ccc2c3c45)nn1)C(=O)N[C@@H](CCC(=O)O)C(=O)N[C@@H](C)C(=O)N[C@@H](CCCCN)C(=O)N[C@@H](CCCCN)C(=O)N[C@@H](CCCCN)C(=O)N[C@@H](CCCCN)C(N)=O` (H-AEEEIYGE[X1]EAKKKK-NH2): the fold change (FC) in test [1] and in test [2] was 4 each time. Also, the Activity entry in test [3] is “tde”; in [6], 1.35%; in test [7] it was 1.67%; in [8], 2.01%; in test [9], 4.24%; in test [10], 0.18%. Further, the results for the Activity in test [11], in test [12] and in [13] were 0.25%, 0.33% and 0.41%, respectively. Further, the result in [4] and in [5] was inactive.

On to `CC[C@H](C)[C@H](NC(=O)[C@H](CCC(=O)O)NC(=O)[C@H](CCC(=O)O)NC(=O)[C@H](CCC(=O)O)NC(=O)[C@H](C)N)C(=O)N[C@@H](Cc1ccc(O)cc1)C(=O)NCC(=O)N[C@@H](CCC(=O)O)C(=O)N[C@@H](Cc1cn(-c2ccc3c4c(cccc24)C(=O)N(CC)C3=O)nn1)C(=O)N[C@@H](CCC(=O)O)C(=O)N[C@@H](C)C(=O)N[C@@H](CCCCN)C(=O)N[C@@H](CCCCN)C(=O)N[C@@H](CCCCN)C(=O)N[C@@H](CCCCN)C(N)=O` (H-AEEEIYGE[X2]EAKKKK-NH2), for which the fold change (FC) in test [1] was 2.5.

`CC[C@H](C)[C@H](NC(=O)[C@H](CCC(=O)O)NC(=O)[C@H](CCC(=O)O)NC(=O)[C@H](CCC(=O)O)NC(=O)[C@H](C)N)C(=O)N[C@@H](Cc1ccc(O)cc1)C(=O)NCC(=O)N[C@@H](CCC(=O)O)C(=O)N[C@@H](Cc1cn(-c2cccc3ccccc23)nn1)C(=O)N[C@@H](CCC(=O)O)C(=O)N[C@@H](C)C(=O)N[C@@H](CCCCN)C(=O)N[C@@H](CCCCN)C(=O)N[C@@H](CCCCN)C(=O)N[C@@H](CCCCN)C(N)=O` (H-AEEEIYGE[X3]EAKKKK-NH2): the fold change (FC) in test [1] came out at 0.

In the case of `CC[C@H](C)[C@H](NC(=O)[C@H](CCC(=O)O)NC(=O)[C@H](CCC(=O)O)NC(=O)[C@H](CCC(=O)O)NC(=O)[C@H](C)N)C(=O)N[C@@H](Cc1ccc(O)cc1)C(=O)NCC(=O)N[C@@H](CCC(=O)O)C(=O)N[C@@H](Cc1cn(-c2cc3ccc(O)cc3oc2=O)nn1)C(=O)N[C@@H](CCC(=O)O)C(=O)N[C@@H](C)C(=O)N[C@@H](CCCCN)C(=O)N[C@@H](CCCCN)C(=O)N[C@@H](CCCCN)C(=O)N[C@@H](CCCCN)C(N)=O` (H-AEEEIYGE[X4]EAKKKK-NH2), in test [1], the fold change (FC) is 1.1.

Turning to `CC[C@H](C)[C@H](NC(=O)[C@H](CCC(=O)O)NC(=O)[C@H](CCC(=O)O)NC(=O)[C@H](CCC(=O)O)NC(=O)[C@H](C)N)C(=O)N[C@@H](Cc1ccc(O)cc1)C(=O)NCC(=O)N[C@@H](CCC(=O)O)C(=O)N[C@@H](Cc1cn(-c2ccc3c(C)cc(=O)[nH]c3c2)nn1)C(=O)N[C@@H](CCC(=O)O)C(=O)N[C@@H](C)C(=O)N[C@@H](CCCCN)C(=O)N[C@@H](CCCCN)C(=O)N[C@@H](CCCCN)C(=O)N[C@@H](CCCCN)C(N)=O` (H-AEEEIYGE[X5]EAKKKK-NH2), the fold change (FC) in test [1] was determined as 0.
